According to patent US10092551B2, “Spiro-thiazolones” (Hoffmann-La Roche Inc., priority 2014, dated 2018):

What follows are molecules tested against human V1a receptor (Homo sapiens (Human), UniProt P37288) (assay: human V1a receptor binding studies (3H-Vasopressin, SPA beads)). Details: membranes of HEK293 cells transiently transfected with human V1a receptor, Ki by Cheng-Prussoff.
Outline: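 Membranes from HEK293 cells transiently expressing cloned human V1a receptor, bound on yttrium silicate SPA beads with 4 nM 3H-vasopressin (added stock) and serially diluted compound, 1 h at room temperature. Non-specific binding defined with cold vasopressin; IC50 by non-linear regression, Ki via Cheng-Prusoff.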

Sequence of human V1a receptor (P37288 whole entry): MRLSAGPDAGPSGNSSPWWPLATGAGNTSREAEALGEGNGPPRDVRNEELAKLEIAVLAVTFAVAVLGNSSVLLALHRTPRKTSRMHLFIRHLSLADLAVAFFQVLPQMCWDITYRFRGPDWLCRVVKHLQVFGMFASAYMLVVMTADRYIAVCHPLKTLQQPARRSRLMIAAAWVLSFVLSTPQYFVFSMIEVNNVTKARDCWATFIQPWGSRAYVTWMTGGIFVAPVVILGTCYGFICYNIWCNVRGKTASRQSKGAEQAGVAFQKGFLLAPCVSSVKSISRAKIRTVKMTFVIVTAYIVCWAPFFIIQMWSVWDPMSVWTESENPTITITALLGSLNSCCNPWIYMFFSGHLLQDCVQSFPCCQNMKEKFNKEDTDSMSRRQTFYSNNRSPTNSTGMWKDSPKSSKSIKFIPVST

Structure (SMILES)	pKi hV1a
O=C1N=C(N2CCC3(CC2)OCc2ccccc23)SC1=C1c2ccccc2-c2ccccc21 [Example 104, 5-(9H-fluoren-9-ylidene)-2-(1′H,3H-spiro[2-benzofuran-1,4′-piperidin]-1′-yl)-1,3-thiazol-4(5H)-one]	8.2
O=C1N=C(N2CCC3(CC2)OCc2ccccc23)SC1=C1c2ccccc2CCc2ccccc21 [Example 98, 5-(10,11-dihydro-5H-dibenzo[a,d][7]annulen-5-ylidene)-2-(1′H,3H-spiro[2-benzofuran-1,4′-piperidin]-1′-yl)-1,3-thiazol-4(5H)-one]	8.6
O=C1N=C(N2CCC3(CC2)OCc2ccccc23)SC1=C1c2ccccc2Oc2ccccc21 [Example 103, 2-(1′H,3H-spiro[2-benzofuran-1,4′-piperidin]-1′-yl)-5-(9H-xanthen-9-ylidene)-1,3-thiazol-4(5H)-one]	8.6
CC/C(=C1/SC(N2CCC3(CC2)OCc2ccccc23)=NC1=O)c1ccncc1 [Example 31, (5Z)-5-[1-(pyridin-4-yl)propylidene]-2-(1′H,3H-spiro[2-benzofuran-1,4′-piperidin]-1′-yl)-1,3-thiazol-4(5H)-one]	8.4
O=C1N=C(N2CCC3(CC2)OC(=O)c2ccccc23)S/C1=C(/CO)c1ccc(Cl)nc1 [Example 145, 1′-{(5E)-5-[1-(6-chloropyridin-3-yl)-2-hydroxyethylidene]-4-oxo-4,5-dihydro-1,3-thiazol-2-yl}-3H-spiro[2-benzofuran-1,4′-piperidin]-3-one]	8.0
C/C(CS(C)(=O)=O)=C1/SC(N2CCC3(CC2)OCc2ccccc23)=NC1=O [Example 121, (5E/Z)-5-[1-(methylsulfonyl)propan-2-ylidene]-2-(1′H,3H-spiro[2-benzofuran-1,4′-piperidin]-1′-yl)-1,3-thiazol-4(5H)-one]	7.0
CC(C)(C)[Si](C)(C)OC/C(=C1/SC(N2CCC3(CC2)OC(=O)c2ccccc23)=NC1=O)c1ccccc1 [Example 140, 1′-[(5E)-5-(2-{[tert-butyl(dimethyl)silyl]oxy}-1-phenylethylidene)-4-oxo-4,5-dihydro-1,3-thiazol-2-yl]-3H-spiro[2-benzofuran-1,4′-piperidin]-3-one]	8.9
C/C(=C1/SC(N2CCC3(CC2)OCc2ccccc23)=NC1=O)c1nc[nH]c1C [Example 109, (5E/Z)-5-[1-(5-methyl-1H-1-imidazol-4-yl)ethylidene]-2-(1′H,3H-spiro[2-benzofuran-1,4′-piperidin]-1′-yl)-1,3-thiazol-4(5H)-one]	6.6
COC/C(C)=C1\SC(N2CCC3(CC2)OCc2ccccc23)=NC1=O [Example 50, (5E/Z)-5-(1-methoxypropan-2-ylidene)-2-(1′H,3H-spiro[2-benzofuran-1,4′-piperidin]-1′-yl)-1,3-thiazol-4(5H)-one]	8.4
O=C1N=C(N2CCC3(CC2)OCc2ccccc23)SC1=C1CCCCC1 [Example 52, 5-cyclohexylidene-2-(1′H,3H-spiro[2-benzofuran-1,4′-piperidin]-1′-yl)-1,3-thiazol-4(5H)-one]	8.5
C/C(=C1\SC(N2CCC3(CC2)OC(=O)c2ccccc23)=NC1=O)c1ccc(C)nc1 [Example 136, 1′-{(5E)-5-[1-(6-methylpyridin-3-yl)ethylidene]-4-oxo-4,5-dihydro-1,3-thiazol-2-yl}-3H-spiro[2-benzofuran-1,4′-piperidin]-3-one]	7.5
O=C1N=C(N2CCC3(CC2)OCc2ccccc23)SC1=C(c1ccccn1)c1ccccn1 [Example 110, 5-[di(pyridin-2-yl)methylidene]-2-(1′H,3H-spiro[2-benzofuran-1,4′-piperidin]-1′-yl)-1,3-thiazol-4(5H)-one]	7.6
O=C1N=C(N2CCC3(CC2)OCc2ccccc23)SC1=C(C(F)(F)F)C(F)(F)F [Example 111, 5-(1,1,1,3,3,3-hexafluoropropan-2-ylidene)-2-(1′H,3H-spiro[2-benzofuran-1,4′-piperidin]-1′-yl)-1,3-thiazol-4(5H)-one]	7.5
O=C1N=C(N2CCC3(CC2)OCc2ccccc23)SC1=C(c1ccc(F)cc1)c1ccc(F)cc1 [Example 101, 5-[bis(4-fluorophenyl)methylidene]-2-(1′H,3H-spiro[2-benzofuran-1,4′-piperidin]-1′-yl)-1,3-thiazol-4(5H)-one]	8.0
O=C1N=C(N2CCC3(CC2)OCc2ccccc23)SC1=C1CCCC1 [Example 53, 5-cyclopentylidene-2-(1′H,3H-spiro[2-benzofuran-1,4′-piperidin]-1′-yl)-1,3-thiazol-4(5H)-one]	8.3

The remaining lines, values ahead:

pKi hV1a	Structure (SMILES)
6.5	C/C(=C1/SC(N2CCC3(CC2)OCc2ncccc23)=NC1=O)c1oc(C)nc1C [Example 167, (5E/Z)-5-[1-(2,4-dimethyl-1,3-oxazol-5-yl)ethylidene]-2-(1′H,7H-spiro[furo[3,4-b]pyridine-5,4′-piperidin]-1′-yl)-1,3-thiazol-4(5H)-one]
7.9	C/C(=C1/SC(N2CCC3(CC2)OCc2ncccc23)=NC1=O)c1ccc(Cl)nc1 [Example 162, (5E/Z)-5-[1-(6-chloropyridin-3-yl)ethylidene]-2-(1′H,7H-spiro[furo[3,4-b]pyridine-5,4′-piperidin]-1′-yl)-1,3-thiazol-4(5H)-one]
9.0	C/C(=C1/SC(N2CCC3(CC2)OCc2ccncc23)=NC1=O)c1ccc(Cl)cc1 [Example 4, (5E/Z)-5-[1-(4-chlorophenyl)ethylidene]-2-(1H,1′H-spiro[furo[3,4-c]pyridine-3,4′-piperidin]-1′-yl)-1,3-thiazol-4(5H)-one and (5Z)-5-[1-(4-chlorophenyl)ethylidene]-2-(1H,1′H-spiro[furo[3,4-c]pyridine-3,4′-piperidin]-1′-yl)-1,3-thiazol-4(5H)-one]
7.5	C/C(=C1\SC(N2CCC3(CC2)OCc2ccccc23)=NC1=O)c1ccncc1 [Example 36, (5E)-5-[1-(pyridin-4-yl)ethylidene]-2-(1′H,3H-spiro[2-benzofuran-1,4′-piperidin]-1′-yl)-1,3-thiazol-4(5H)-one]
8.8	C/C(=C1/SC(N2CCC3(CC2)OCc2ccccc23)=NC1=O)c1ccccn1 [Example 38, (5Z)-5-[1-(pyridin-2-yl)ethylidene]-2-(1′H,3H-spiro[2-benzofuran-1,4′-piperidin]-1′-yl)-1,3-thiazol-4(5H)-one]
7.0	C/C(=C1/SC(N2CCC3(CC2)OCc2ccccc23)=NC1=O)c1cc2ncccc2o1 [Example 108, (5E/Z)-5-[1-(furo[3,2-b]pyridin-2-yl)ethylidene]-2-(1′H,3H-spiro[2-benzofuran-1,4′-piperidin]-1′-yl)-1,3-thiazol-4(5H)-one]
8.3	C/C(=C1\SC(N2CCC3(CC2)OCc2ccccc23)=NC1=O)c1ccc(C)nc1 [Example 153, (5E)-5-[1-(6-methylpyridin-3-yl)ethylidene]-2-(1′H,3H-spiro[2-benzofuran-1,4′-piperidin]-1′-yl)-1,3-thiazol-4(5H)-one]
8.2	C/C(=C1/SC(N2CCC3(CC2)OCc2ccccc23)=NC1=O)c1cccc(Cl)c1 [Example 12, (5E/Z)-5-[1-(3-chlorophenyl)ethylidene]-2-(1′H,3H-spiro[2-benzofuran-1,4′-piperidin]-1′-yl)-1,3-thiazol-4(5H)-one]
